# Test results as given in PubChem BioAssay (NCI).
#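 Five compound concentrations were applied to cells in 96-well plates for 48 hours; endpoints were derived by simple linear interpolation of the resulting dose-response curve. GI50 = concentration required for 50% inhibition of growth. TGI is the concentration that stops growth completely.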
# Legend:
# Test in all cases: NCI anticancer screen, dose series, 48 h
# IGROV1 ovarian = test system: IGROV1 ovarian
# HOP-62 NSCLC = test system: HOP-62 NSCLC
# RPMI-8226 leukemia = test system: RPMI-8226 leukemia
# K-562 leukemia = test system: K-562 leukemia
# MALME-3M melanoma = test system: MALME-3M melanoma
# BT-549 breast = test system: BT-549 breast
# NCI-H522 lung = test system: NCI-H522 lung
# NCI/ADR-RES ovarian = test system: NCI/ADR-RES ovarian
# PC-3 prostate = test system: PC-3 prostate
# EKVX NSCLC = test system: EKVX NSCLC
Compound,GI50 (IGROV1 ovarian),TGI (IGROV1 ovarian),GI50 (HOP-62 NSCLC),TGI (HOP-62 NSCLC),GI50 (RPMI-8226 leukemia),TGI (RPMI-8226 leukemia),GI50 (K-562 leukemia),TGI (K-562 leukemia),GI50 (MALME-3M melanoma),TGI (MALME-3M melanoma),GI50 (BT-549 breast),TGI (BT-549 breast),GI50 (NCI-H522 lung),TGI (NCI-H522 lung),GI50 (NCI/ADR-RES ovarian),TGI (NCI/ADR-RES ovarian),GI50 (PC-3 prostate),TGI (PC-3 prostate),TGI (EKVX NSCLC),GI50 (EKVX NSCLC)
O=C1/C(=C/c2ccc([N+](=O)[O-])s2)Oc2ccc(Br)cc21,0.309 µM,0.964 µM,1 µM,4.3 µM,0.278 µM,1.14 µM,0.135 µM,0.833 µM,0.347 µM,1.6 µM,0.257 µM,0.741 µM,0.177 µM,0.351 µM,0.497 µM,4.91 µM,0.251 µM,0.774 µM,–,–
CC(C)CC1CC2C(=O)N(c3ccccc3)C(=O)C2c2[nH]c3ccccc3c21 (stereo not drawn),–,61.9 µM,–,47.8 µM,–,> 100 µM,–,> 42.7 µM,–,37 µM,–,–,–,> 100 µM,–,–,–,–,> 100 µM,–
CC(=O)CC(=O)Nc1ccc(OS(N)(=O)=O)cc1,–,> 100 µM,–,> 100 µM,–,> 100 µM,–,> 100 µM,–,> 100 µM,–,–,–,> 100 µM,–,–,–,–,> 100 µM,–
CC[C@@]1(O)C(=O)OCc2c1cc1n(c2=O)Cc2cc3c(N)c(OC)ccc3nc2-1,0.223 µM,2.45 µM,< 0.01 µM,0.037 µM,0.135 µM,2.32 µM,0.152 µM,–,0.236 µM,4.05 µM,–,–,0.0434 µM,1.31 µM,–,–,–,–,> 100 µM,0.574 µM
O=C1C[C@@H]2[C@@H](C=CC23CCCC3)N1O,–,> 100 µM,–,> 100 µM,–,> 100 µM,–,> 100 µM,–,> 100 µM,–,–,–,> 100 µM,–,–,–,–,> 100 µM,–
NNC(=S)N/N=C(\c1nc2ccc(Cl)cc2[nH]c1=O)C(O)c1cccc([N+](=O)[O-])c1 (stereo not drawn),–,> 100 µM,–,> 55.8 µM,–,> 63.7 µM,–,> 70.2 µM,–,> 100 µM,–,–,–,> 100 µM,–,–,–,–,> 100 µM,–
COc1ccc(C2=NC(CO)[C@H](c3ccccc3)O2)cc1OC (stereo partly drawn),–,> 100 µM,–,> 100 µM,–,–,–,> 100 µM,–,> 100 µM,–,–,–,> 100 µM,–,–,–,–,–,–
CCOC(=O)N1C/C(=C\c2ccc(N(C)C)cc2)C(=O)/C(=C/c2ccc(N(C)C)cc2)C1,–,> 100 µM,–,> 100 µM,–,> 100 µM,–,> 100 µM,–,> 100 µM,–,–,–,> 100 µM,–,–,–,–,> 100 µM,–
NC(=O)c1c(-c2ccccc2)c(-c2ccccc2)cc2c(=O)c3ccccc3[nH]c12,–,74.3 µM,–,58.5 µM,–,> 100 µM,–,> 100 µM,–,37.1 µM,–,–,–,20 µM,–,–,–,–,> 100 µM,–
CC[P+](C)(C)CC,–,> 100 µM,–,> 100 µM,–,> 100 µM,–,> 100 µM,–,> 100 µM,–,–,–,–,–,–,–,–,> 100 µM,–
COc1cc(Br)c(C=Nc2cccc3ccc(OS(=O)(=O)c4ccc([N+](=O)[O-])cc4)cc23)cc1OC,–,> 100 µM,–,> 100 µM,–,> 100 µM,–,–,–,> 100 µM,–,–,–,> 100 µM,–,–,–,–,> 100 µM,–
O=C1CC[C@@H]2[C@H]3CCC(=O)c4c3c(c3cccc(O)c3c4O)O[C@@]23C(=O)c2cccc(O)c2C(O)=C13,> 100 µM,> 100 µM,> 100 µM,> 100 µM,> 100 µM,> 100 µM,> 100 µM,> 100 µM,–,–,> 100 µM,> 100 µM,> 100 µM,> 100 µM,> 100 µM,> 100 µM,> 100 µM,> 100 µM,> 100 µM,> 100 µM
